Measured values reported in patent US12275725B2, “Inhibitors of the notch transcriptional activation complex and methods for use of the same” (University of Miami, priority 2019, dated 2025).
Converted amounts (≈) assume the structure as drawn. Where two headings read alike, the source gives them in different places. Each block holds one compound with its values, some of them ahead of it.

Assays:
[1] = biological target: T1, Notch transcriptional activation complex (NTC) (Homo sapiens, UniProt P46531+Q06330); experiment: Notch complex assembly assay (NTC AlphaScreen assay); type: binding
T1 construct: made in house; host or cells: SF21 insect cells (baculovirus)
T1 sequence (P46531 1754-2555 limits assumed): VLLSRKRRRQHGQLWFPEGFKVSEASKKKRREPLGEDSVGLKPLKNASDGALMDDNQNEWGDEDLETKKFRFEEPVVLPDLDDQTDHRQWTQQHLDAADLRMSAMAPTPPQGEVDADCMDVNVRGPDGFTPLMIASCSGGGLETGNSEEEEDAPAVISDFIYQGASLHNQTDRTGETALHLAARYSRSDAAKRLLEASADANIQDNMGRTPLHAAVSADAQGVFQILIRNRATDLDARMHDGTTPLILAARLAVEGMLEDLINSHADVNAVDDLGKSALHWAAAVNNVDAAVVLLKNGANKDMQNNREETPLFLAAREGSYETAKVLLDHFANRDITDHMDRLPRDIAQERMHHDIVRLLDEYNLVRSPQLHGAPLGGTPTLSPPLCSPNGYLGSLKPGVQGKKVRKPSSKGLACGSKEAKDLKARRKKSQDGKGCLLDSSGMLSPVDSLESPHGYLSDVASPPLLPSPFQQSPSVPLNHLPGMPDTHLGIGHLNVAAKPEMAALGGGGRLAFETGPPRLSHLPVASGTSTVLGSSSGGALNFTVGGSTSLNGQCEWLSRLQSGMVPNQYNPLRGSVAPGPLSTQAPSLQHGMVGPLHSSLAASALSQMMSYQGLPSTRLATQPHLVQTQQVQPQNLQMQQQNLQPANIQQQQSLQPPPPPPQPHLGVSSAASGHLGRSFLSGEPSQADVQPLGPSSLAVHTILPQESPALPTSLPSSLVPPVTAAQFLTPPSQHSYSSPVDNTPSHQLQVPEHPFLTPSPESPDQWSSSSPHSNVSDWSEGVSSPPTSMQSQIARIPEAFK
T1 sequence (Q06330 whole entry): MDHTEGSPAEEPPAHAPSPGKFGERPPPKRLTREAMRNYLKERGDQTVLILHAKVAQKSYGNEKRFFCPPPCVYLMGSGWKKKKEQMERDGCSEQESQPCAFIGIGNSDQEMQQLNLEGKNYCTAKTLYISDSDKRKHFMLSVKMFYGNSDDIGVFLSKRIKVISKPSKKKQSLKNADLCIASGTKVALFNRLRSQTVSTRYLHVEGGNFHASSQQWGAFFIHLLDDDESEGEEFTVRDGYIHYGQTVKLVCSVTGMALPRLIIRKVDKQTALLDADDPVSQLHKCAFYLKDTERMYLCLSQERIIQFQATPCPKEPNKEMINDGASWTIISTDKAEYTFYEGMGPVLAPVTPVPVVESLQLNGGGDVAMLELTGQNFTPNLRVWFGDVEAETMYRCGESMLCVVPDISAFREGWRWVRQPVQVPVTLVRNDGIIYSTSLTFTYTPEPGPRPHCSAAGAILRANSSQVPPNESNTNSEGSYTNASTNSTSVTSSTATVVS
Method: Notch Complex Assembly Assay
All recombinant proteins were expressed using baculovirus expression vectors in SF21 cells and purified. Unless otherwise stated, all assays contained 125 fmol of double stranded oligonucleotide, CSL, Notch1 and MAML1 proteins. Reactions were carried out in Tris-buffered saline with 0.1% Tween (“TBS-T”) buffer containing 0.2% bovine serum albumin (“BSA”) and 100 μg/mL salmon sperm DNA. Briefly, the Notch complex was assembled on a biotinylated double stranded (“DS”) oligonucleotide harboring one CSL binding site (5′-[…]-3′). Complex assembly was quantitated using ALPHASCREEN technology (Perkin Elmer). Proteins in the complexes were detected using specific antibodies to either MAML1 (Cell signaling, D3K7B), Notch1 (Abcam, 52627) or CSL (anti-His, Abcam 18184). Streptavidin conjugated […] beads (Perkin Elmer, 6760002) were used to bind the DS oligonucleotide, and Protein-A conjugated […] beads (Perkin Elmer, 6760137) were used to detect antibody-coated proteins. For screening compounds, Notch transcriptional activation complex (“NTC”) components were added to wells that already contained the inhibitor to be assayed and allowed to incubate for 30 minutes. The ALPHASCREEN plate (Perkin Elmer, 6008350) was then read on an Envision Plate reader (Perkin Elmer) as specified by the manufacturer.

[2] = Aqueous solubility in SGF, FaSSIF and PBS
[3] = Metabolism to acid form in liver microsomes; type: in vitro ADME; settings: to SSTN-258
OE 33 cell line = experiment: Cell viability, MTT, OE33 cell line; type: cell-based, human; settings: for IC50: Homo sapiens, OE33, 72 h treatment
Excerpt: OE33 cells, human esophageal adenocarcinoma cell lines, were obtained from the European Collection of Cell Culture. SUM-149 and SUM-159, breast cancer cell lines, were obtained from Dr. Joyce Slingerland at the University of Miami School of Medicine. The following cell lines were obtained directly from the ATCC: 786-0, a human renal cell adenocarcinoma cell line; HT-1080, a human fibrosarcoma cell line; MCF-7, a mammary gland adenocarcinoma; T47D, a human mammary ductal carcinoma cell line; and H-23 a non-small cell lung adenocarcinoma cell line. All cell lines were propagated in growth media as specified.

[4] = Metabolism to acid form in mouse hepatocytes; type: in vitro ADME; settings: to SSTN-258
[5] = Pharmacokinetic study in mouse plasma; type: in vivo; settings: for Cmax: read-out: *C0/Cmax
Method: Pharmacokinetic studies were performed as previously described (Astudillo et al. (2016) Cancer Res). The following treatments were administered: NADi-260 via intraperitoneal (i.p.) route at 100 mg/kg, NADI-260 via intravenous route (i.v.) at 2 mg/kg, NADi-351 via i.p. at 10 mg/kg, NADi-351 via […] at 10 mg/kg and NADi-351 via oral route (PO) at 50 mg/kg. Blood samples were collected from each treatment group and their respective control grounds, plasma was separated from blood immediately by centrifugation at 4000 rpm for 10 min at 4° C. and stored below −70° C. until bioanalysis. All samples were processed for analysis by protein precipitation using acetonitrile and analyzed by fit for purpose LC-MS/MS method. Pharmacokinetic parameters were calculated using the non-compartmental analysis module of Phoenix WinNonlin (Version 6.3). Histological Analysis of Mouse Intestine Tissue

[6] = GSH ethyl ester conjugation / parent remaining in human liver microsomes; type: in vitro ADME; settings: for Percentage (%) Parent Remaining in HLM: reacted with GSH
[7] = pH 1.2, simulated gastric fluid
[8] = Table B, read-out: IC50 (μM) NTC
[9] = Table C, NTC AlphaScreen assay, read-out: *IC50
[10] = Table E, NTC AlphaScreen assay, read-out: *IC50
[11] = ip, NADi-260 i.p. 100 mg/kg, mouse plasma
[12] = iv, NADi-260 i.v. 2 mg/kg, mouse plasma, back extrapolated, initial three time points only
[13] = iv, NADi-260 i.v. 2 mg/kg, mouse plasma, initial three time points only

Compound: O=C(O)CCCc1ccc(N(CCCl)CCCl)cc1 [Chlorambucil, chlorambucil]
solubility [2, 7]: 70.4 ± 2.6 µM (≈ 21.4 µg/mL) | solubility ([2]; pH 6.5, fassif): 68.9 ± 1.9 µM (≈ 21 µg/mL)

Compound: CCN(CC)C(=O)COc1c(F)cc(/C=C2\SC(=S)N(CC(=O)N(C)C)C2=O)cc1OC [NADi-244]
IC50 [1, 9]: 2.9 µM

Compound: COc1cc(CC2SC(=S)N(CC(=O)N(C)C)C2=O)cc(F)c1OCc1nnc[nH]1 (centres unmarked) [PM7]
AUC(0-inf) [5, 11]: 19100 ng·h/mL | AUC(0-t) [5, 11]: 18800 ng·h/mL | Tmax [5, 11]: 15 min | Cmax [5, 11]: 8520 ng/mL | Cmax [5, 12]: 3480 ng/mL | AUC(0-inf) [5, 13]: 310 ng·h/mL | AUC(0-t) [5, 13]: 308 ng·h/mL

Compound: COc1ccc2[nH]c([S+]([O-])Cc3ncc(C)c(OC)c3C)nc2c1 (centres unmarked) [Omeprazole, omeprazole, reference compound]
solubility (physchem; [7]): < 5 µM | solubility (physchem; pH 6.5, fassif): 174 ± 5.4 µM (≈ 60 µg/mL)

Compound: COc1cc(/C=C2\SC(=S)N(CC(=O)N(C)C)C2=O)cc(F)c1OCC(=O)O [SSTN-258]
Cell viability (MTT, μM, 72 h treatment OE 33 cell line) (OE 33 cell line): No effect | inhibition of NTC assembly ([1]; FIG. 1B): did not inhibit | IC50 (μM) NTC ([1]; Table B): Inactive

Compound: COc1cc(/C=C2\SC(=S)N(CC(=O)N(C)C)C2=O)cc(F)c1O [PM6]
plasma level of metabolite ([5]; after NADi-260 i.v. 2 mg/kg, mouse plasma): BQL | AUC(0-t) [5, 11]: 21 ng·h/mL | Tmax [5, 11]: 15 min | Cmax [5, 11]: 41 ng/mL

Compound: CC/C(=C(/CC)c1ccc(O)cc1)c1ccc(O)cc1 [DES, diethylstilbestrol, reference compound]
solubility (physchem; pH 7.4, aqueous buffer): < 5 µM

Compound: CCOC(=O)COc1ccc(F)cc1/C=C1\SC(=S)N(CC(=O)N(C)C)C1=O [SSTN-251]
IC50 (OE 33 cell line): 12.8 µM | IC50 [1, 8]: 5.1 µM

Compound: COc1cc(/C=C2\SC(=S)N(CC(=O)N(C)C)C2=O)ccc1OCC(=O)O [SSTN-254]
IC50 (OE 33 cell line): > 25 µM | IC50 [1, 8]: 4.4 µM

Second part, led by results:

*IC50 (μM) ([1]; Table C, NTC AlphaScreen assay): Inactive
Compound: CCc1nnc(COc2c(F)cc(/C=C3\SC(=S)N(CC(=O)N(C)C)C3=O)cc2OC)o1 [NADi-256]

*IC50 (μM) ([1]; Table C, NTC AlphaScreen assay): Inactive
Compound: COc1cc(/C=C2\SC(=S)N(CC(=O)N(C)C)C2=O)cc(F)c1OCc1nnc(C)o1 [NADi-255]

*IC50 (μM) ([1]; Table C, NTC AlphaScreen assay): Inactive
Compound: CCc1noc(COc2c(F)cc(/C=C3\SC(=S)N(CC(=O)N(C)C)C3=O)cc2OC)n1 [NADi-259]

time to metabolize to acid form [3]: ≤ 15 min | time to metabolize to acid form [4]: ≤ 15 min | metabolism in mouse plasma ([5]; pharmacokinetic study of SSTN-253, FIG. 1C): metabolizes to its acid form (SSTN-258) | IC50 [1, 8]: 0.058 µM | IC50 [1, 9]: 0.06 µM | IC50 [1, 10]: 0.06 µM
Compound: CCOC(=O)COc1c(F)cc(/C=C2\SC(=S)N(CC(=O)N(C)C)C2=O)cc1OC [SSTN-253]
IC50 (OE 33 cell line): 9.3 µM

IC50 [1, 9]: 0.08 µM
Compound: CCc1nnc(COc2c(F)cc(/C=C3\SC(=S)N(CC(=O)N(C)C)C3=O)cc2OC)[nH]1 [NADi-262]

IC50 [1, 9]: 0.62 µM
Compound: COc1cc(/C=C2\SC(=S)N(CC(=O)N(C)C)C2=O)cc(F)c1OCc1nnc(C)[nH]1 [NADi-261]

*IC50 (μM) ([1]; Table C, NTC AlphaScreen assay): Inactive
Compound: COc1cc(/C=C2\SC(=S)N(CC(=O)N(C)C)C2=O)cc(F)c1OCc1ncc(C)o1 [NADi-249]

*IC50 (μM) ([1]; Table C, NTC AlphaScreen assay): Inactive
Compound: COc1cc(/C=C2\SC(=S)N(CC(=O)N(C)C)C2=O)cc(F)c1OCc1nc(C)no1 [NADi-258]

*IC50 (μM) ([1]; Table C, NTC AlphaScreen assay): Inactive
Compound: COc1cc(/C=C2\SC(=S)N(CC(=O)N(C)C)C2=O)cc(F)c1OCc1nc(C)c(C)o1 [NADi-251]

*IC50 (μM) ([1]; Table C, NTC AlphaScreen assay): Inactive
Compound: COc1cc(/C=C2\SC(=S)N(CC(=O)N(C)C)C2=O)cc(F)c1OCc1ncco1 [NADi-248]

AUC(0-inf) [5, 11]: 5420 ng·h/mL | AUC(0-t) [5, 11]: 5320 ng·h/mL | Tmax [5, 11]: 4.8 min | Cmax [5, 11]: 5700 ng/mL | Cmax [5, 12]: 837 ng/mL | clearance ([5]; iv, NADi-260 i.v. 2 mg/kg, mouse plasma, cell says NR, value in footnote): 429 mL/min/kg | AUC(0-inf) [5, 13]: 78 ng·h/mL | AUC(0-t) [5, 13]: 77 ng·h/mL | half-life [5, 13]: 4.8 min | Vd ([5]; iv, NADi-260 i.v. 2 mg/kg, mouse plasma, read-out: Vss): 1.79 L/kg | Percentage (%) Parent Remaining in HLM ([6]; incubation time 0 min): 100% | Percentage (%) Parent Remaining in HLM ([6]; incubation time 60 min): 46% | GSH ethyl ester conjugation in HLM ([6]; within 60 minutes of incubation): showed GSH ethyl ester conjugation | IC50 [1, 9]: 0.02 µM | IC50 [1, 10]: 0.02 µM
Compound: COc1cc(/C=C2\SC(=S)N(CC(=O)N(C)C)C2=O)cc(F)c1OCc1nc[nH]n1 [NADi-260, (Z)-2-(5-(4-((1H-1,2,4-triazol-3-yl)methoxy)-3-fluoro-5-methoxybenzylidene)-4-oxo-2-thioxothiazolidin-3-yl)-N,N-dimethylacetamide]

IC50 [1, 9]: 0.3 µM
Compound: CCc1coc(COc2c(F)cc(/C=C3\SC(=S)N(CC(=O)N(C)C)C3=O)cc2OC)n1 [NADi-253]
